Measured values taken from publication PMC5218480 (PLoS ONE, 2017).

System: MV-4-11 cells
Assay: Gene expression microarray analysis (Affymetrix PrimeView) and GSEA
Format: cell-based, human
Design: RFU PODN (11730768_x_at) / Fold change /veh PODN (11730768_x_at) / RFU LINC00158 (11744669_a_at) / Fold change /veh LINC00158 (11744669_a_at) / RFU DUSP10 (11751237_a_at) / Fold change /veh DUSP10 (11751237_a_at) / RFU ID3 (11757404_x_at) / Fold change /veh ID3 (11757404_x_at) / RFU PLEKHG5 (11737974_s_at) / Fold change /veh PLEKHG5 (11737974_s_at) / RFU LRRC4B (11730491_at) / Fold change /veh LRRC4B (11730491_at) / RFU GIMAP4 (11747438_a_at) / Fold change /veh GIMAP4 (11747438_a_at) / RFU KRT8 (11758183_x_at) / Fold change /veh KRT8 (11758183_x_at) / RFU CNN1 (11734310_a_at) / Fold change /veh CNN1 (11734310_a_at) / RFU VPS37D (11726825_at) / Fold change /veh VPS37D (11726825_at) / RFU C10orf10 (11716522_x_at) / Fold change /veh C10orf10 (11716522_x_at) / RFU KIR2DL2 /// KIR2DL4 /// KIR2DL5A /// KIR2DL5B /// KIR2DS1 /// KIR2DS2 /// KIR2DS3 /// KIR2DS4 /// KIR3DL3 /// KIR3DL3 /// KIR3DS1 (11738374_at) / Fold change /veh KIR2DL2 /// KIR2DL4 /// KIR2DL5A /// KIR2DL5B /// KIR2DS1 /// KIR2DS2 /// KIR2DS3 /// KIR2DS4 /// KIR3DL3 /// KIR3DL3 /// KIR3DS1 (11738374_at) / RFU C1QL1 (11718748_at) / Fold change /veh C1QL1 (11718748_at) / RFU TMPRSS4 (11747572_a_at) / Fold change /veh TMPRSS4 (11747572_a_at) / RFU HAMP (11756126_x_at) / Fold change /veh HAMP (11756126_x_at) / RFU RNFT2 (11725882_a_at) / Fold change /veh RNFT2 (11725882_a_at) / RFU NR4A2 (11747474_a_at) / Fold change /veh NR4A2 (11747474_a_at) / RFU ABCC12 (11746883_a_at) / Fold change /veh ABCC12 (11746883_a_at) / RFU TMEM136 (11760407_x_at) / Fold change /veh TMEM136 (11760407_x_at) / RFU CLDN22 /// WWC2 (11732394_at) / Fold change /veh CLDN22 /// WWC2 (11732394_at) / RFU HLA-DPB1 (11760878_x_at) / Fold change /veh HLA-DPB1 (11760878_x_at) / RFU SPINT1 (11716480_a_at) / Fold change /veh SPINT1 (11716480_a_at) / RFU GAP43 (11754022_s_at) / Fold change /veh GAP43 (11754022_s_at) / RFU A4GNT (11735810_at) / Fold change /veh A4GNT (11735810_at) / RFU PRB3 (11715151_x_at) / Fold change /veh PRB3 (11715151_x_at) / RFU TUBB4B (11761932_at) / Fold change /veh TUBB4B (11761932_at) / RFU CAPN14 (11732068_a_at) / Fold change /veh CAPN14 (11732068_a_at) / RFU TMCC2 (11721928_a_at) / Fold change /veh TMCC2 (11721928_a_at) / RFU IRGQ (11745062_a_at) / Fold change /veh IRGQ (11745062_a_at) / RFU FAM174B (11720279_a_at) / Fold change /veh FAM174B (11720279_a_at) / RFU TMPRSS4 (11748680_a_at) / Fold change /veh TMPRSS4 (11748680_a_at) / RFU FAM212B (11763350_a_at) / Fold change /veh FAM212B (11763350_a_at) / RFU PLEKHG5 (11743358_a_at) / Fold change /veh PLEKHG5 (11743358_a_at) / RFU ZSCAN30 (11745921_a_at) / Fold change /veh ZSCAN30 (11745921_a_at) / RFU CMKLR1 (11741424_a_at) / Fold change /veh CMKLR1 (11741424_a_at) / RFU LOC101060620 /// MAPK8IP1 (11723275_at) / Fold change /veh LOC101060620 /// MAPK8IP1 (11723275_at) / RFU SPTSSB (11747773_x_at) / Fold change /veh SPTSSB (11747773_x_at) / RFU PRSS12 (11739890_at) / Fold change /veh PRSS12 (11739890_at) / RFU BIN1 (11741810_x_at) / Fold change /veh BIN1 (11741810_x_at) / RFU WNT11 (11732464_a_at) / Fold change /veh WNT11 (11732464_a_at) / RFU C10orf10 (11716521_a_at) / Fold change /veh C10orf10 (11716521_a_at) / RFU C5orf56 (11738089_at) / Fold change /veh C5orf56 (11738089_at) / RFU CYB561 (11721691_x_at) / Fold change /veh CYB561 (11721691_x_at) / RFU ANKRD19P (11752326_a_at) / Fold change /veh ANKRD19P (11752326_a_at) / RFU OR2T12 /// OR2T33 /// OR2T8 (11738714_s_at) / Fold change /veh OR2T12 /// OR2T33 /// OR2T8 (11738714_s_at) / RFU VCAN (11748164_a_at) / Fold change /veh VCAN (11748164_a_at) / RFU JSRP1 (11732532_at) / Fold change /veh JSRP1 (11732532_at) / RFU KRTAP10-11 (11738290_x_at) / Fold change /veh KRTAP10-11 (11738290_x_at) / RFU MYO3A (11730013_a_at) / Fold change /veh MYO3A (11730013_a_at) / RFU EBF3 (11725865_a_at) / Fold change /veh EBF3 (11725865_a_at) / RFU CAMK2N1 (11719241_x_at) / Fold change /veh CAMK2N1 (11719241_x_at) / RFU C5orf56 (11738088_a_at) / Fold change /veh C5orf56 (11738088_a_at) / RFU OLFML3 (11715873_a_at) / Fold change /veh OLFML3 (11715873_a_at) / RFU LOC100653217 /// NTM (11731650_a_at) / Fold change /veh LOC100653217 /// NTM (11731650_a_at) / RFU MAPK11 (11762145_a_at) / Fold change /veh MAPK11 (11762145_a_at) / RFU FIZ1 (11724087_x_at) / Fold change /veh FIZ1 (11724087_x_at) / RFU OASL (11726364_x_at) / Fold change /veh OASL (11726364_x_at) / RFU SOX15 (11748057_x_at) / Fold change /veh SOX15 (11748057_x_at) / RFU CD79A (11719716_a_at) / Fold change /veh CD79A (11719716_a_at) / RFU HIST1H1D (11736915_at) / Fold change /veh HIST1H1D (11736915_at) / RFU CASKIN2 (11723855_a_at) / Fold change /veh CASKIN2 (11723855_a_at) / RFU LOC730098 (11760151_x_at) / Fold change /veh LOC730098 (11760151_x_at) / RFU OR4N2 (11742367_at) / Fold change /veh OR4N2 (11742367_at) / RFU PRRT2 (11749266_a_at) / Fold change /veh PRRT2 (11749266_a_at) / RFU SNX32 (11753110_a_at) / Fold change /veh SNX32 (11753110_a_at) / RFU CDHR5 (11726645_a_at) / Fold change /veh CDHR5 (11726645_a_at) / RFU RCAN1 (11760418_a_at) / Fold change /veh RCAN1 (11760418_a_at) / RFU FAM167A (11723789_a_at) / Fold change /veh FAM167A (11723789_a_at) / RFU FAM26E (11764081_at) / Fold change /veh FAM26E (11764081_at) / RFU ISYNA1 (11749810_s_at) / Fold change /veh ISYNA1 (11749810_s_at) / RFU ACY1 (11761880_at) / Fold change /veh ACY1 (11761880_at) / RFU 11764098_at / Fold change /veh 11764098_at / RFU SAMD14 (11745864_x_at) / Fold change /veh SAMD14 (11745864_x_at) / RFU NPB (11741838_a_at) / Fold change /veh NPB (11741838_a_at) / RFU TMPRSS6 (11731388_a_at) / Fold change /veh TMPRSS6 (11731388_a_at) / RFU KRTAP10-2 (11738614_at) / Fold change /veh KRTAP10-2 (11738614_at) / RFU ARHGAP8 /// PRR5-ARHGAP8 (11727945_x_at) / Fold change /veh ARHGAP8 /// PRR5-ARHGAP8 (11727945_x_at) / RFU KRTAP5-7 /// NADSYN1 (11734609_at) / Fold change /veh KRTAP5-7 /// NADSYN1 (11734609_at) / RFU RASL12 (11751679_a_at) / Fold change /veh RASL12 (11751679_a_at) / RFU CDKN2B (11736163_a_at) / Fold change /veh CDKN2B (11736163_a_at) / RFU PRF1 (11729649_at) / Fold change /veh PRF1 (11729649_at) / RFU, ZNF638 /// ZNF638-IT1 / Fold change vs veh, ZNF638 /// ZNF638-IT1 / RFU, PANK3 / Fold change vs veh, PANK3 / RFU, SH3YL1 / Fold change vs veh, SH3YL1 / RFU, ZEB2 / Fold change vs veh, ZEB2 / RFU, NRIP1 / Fold change vs veh, NRIP1 / RFU, PTTG1IP / Fold change vs veh, PTTG1IP / RFU, CAPN2 / Fold change vs veh, CAPN2 / RFU, MED14 / Fold change vs veh, MED14 / RFU, SNORA58 / Fold change vs veh, SNORA58 / RFU, C1orf63 / Fold change vs veh, C1orf63 / RFU, LRRFIP1 / Fold change vs veh, LRRFIP1 / RFU, NDUFAF7 / Fold change vs veh, NDUFAF7 / RFU, SLC12A2 / Fold change vs veh, SLC12A2 / RFU, IBTK / Fold change vs veh, IBTK / RFU, ESF1 / Fold change vs veh, ESF1 / Fold change vs veh, TMEM50B / RFU, TAOK1 / Fold change vs veh, TAOK1 / RFU, ACBD3 / Fold change vs veh, ACBD3 / RFU, TMA16 / Fold change vs veh, TMA16 / RFU, RWDD3 / Fold change vs veh, RWDD3 / RFU, BCAT1 / Fold change vs veh, BCAT1 / RFU, EDEM3 / Fold change vs veh, EDEM3 / RFU, TMEM33 / Fold change vs veh, TMEM33 / RFU, WDR75 / Fold change vs veh, WDR75 / RFU, AHCTF1 / Fold change vs veh, AHCTF1 / RFU, TFRC / Fold change vs veh, TFRC / RFU, ZDHHC17 / Fold change vs veh, ZDHHC17 / RFU, NOM1 / Fold change vs veh, NOM1 / RFU, ARL8B / Fold change vs veh, ARL8B / RFU, ZBTB11 / Fold change vs veh, ZBTB11 / RFU, TAMM41 / Fold change vs veh, TAMM41 / RFU, KIAA1704 /// LOC100996395 / Fold change vs veh, KIAA1704 /// LOC100996395 / RFU, ING1 / Fold change vs veh, ING1 / RFU, TRMT61B / Fold change vs veh, TRMT61B / RFU, FUBP3 / Fold change vs veh, FUBP3 / RFU, TP53 / Fold change vs veh, TP53 / RFU, TNKS2 / Fold change vs veh, TNKS2 / RFU, ZFP14 / Fold change vs veh, ZFP14 / RFU, ACTR2 / Fold change vs veh, ACTR2 / RFU, PPP3R1 / Fold change vs veh, PPP3R1 / RFU, PIK3R1 / Fold change vs veh, PIK3R1 / RFU, HNRNPA1 / Fold change vs veh, HNRNPA1 / RFU, RNF170 / Fold change vs veh, RNF170 / RFU, ZNF28 / Fold change vs veh, ZNF28 / RFU, RNGTT / Fold change vs veh, RNGTT / RFU, OGT / Fold change vs veh, OGT / RFU, BRD1 / Fold change vs veh, BRD1 / RFU, MARS / Fold change vs veh, MARS / RFU, ZNF655 / Fold change vs veh, ZNF655 / RFU, FAHD1 / Fold change vs veh, FAHD1 / RFU, BDP1 / Fold change vs veh, BDP1 / RFU, LRRCC1 / Fold change vs veh, LRRCC1 / RFU, ARID1A / Fold change vs veh, ARID1A / RFU, ZNF146 / Fold change vs veh, ZNF146 / RFU, ZNF330 / Fold change vs veh, ZNF330 / RFU, GPN3 / Fold change vs veh, GPN3 / RFU, C9orf123 / Fold change vs veh, C9orf123 / RFU, N4BP2L2 / Fold change vs veh, N4BP2L2 / RFU, ARFIP1 / Fold change vs veh, ARFIP1 / RFU, FAM179B / Fold change vs veh, FAM179B / RFU, BCL10 / Fold change vs veh, BCL10 / RFU, UHRF1BP1L / Fold change vs veh, UHRF1BP1L / RFU, BET1 / Fold change vs veh, BET1 / RFU, CNOT2 / Fold change vs veh, CNOT2 / RFU, ZNF268 / Fold change vs veh, ZNF268 / Fold change vs veh, ZNF507 / RFU, DGCR2 / Fold change vs veh, DGCR2 / RFU, WDSUB1 / Fold change vs veh, WDSUB1 / Fold change vs veh, HSP90B1 /// MIR3652 / RFU, ADSS / Fold change vs veh, ADSS / RFU, GK / Fold change vs veh, GK / RFU, ZNF148 / Fold change vs veh, ZNF148 / RFU, TAF9 / Fold change vs veh, TAF9 / RFU, SLC1A5 / Fold change vs veh, SLC1A5 / RFU, SLMO2 / Fold change vs veh, SLMO2 / RFU, ABCC4 / Fold change vs veh, ABCC4 / RFU, LOC101060439 /// RAP1B / Fold change vs veh, LOC101060439 /// RAP1B / RFU, RFX7 / Fold change vs veh, RFX7 / RFU, GTPBP10 / Fold change vs veh, GTPBP10 / RFU, CNEP1R1 / Fold change vs veh, CNEP1R1 / RFU, BIVM-ERCC5 /// ERCC5 / Fold change vs veh, BIVM-ERCC5 /// ERCC5 / RFU, ILF3 / Fold change vs veh, ILF3 / RFU 11762660_at / Fold change /veh 11762660_at / RFU VCAN (11757783_s_at) / Fold change /veh VCAN (11757783_s_at) / RFU DDX43 (11728927_at) / Fold change /veh DDX43 (11728927_at) / RFU KRT8 (11758188_x_at) / Fold change /veh KRT8 (11758188_x_at) / RFU NKD1 (11759106_at) / Fold change /veh NKD1 (11759106_at) / RFU SRD5A1 (11742802_a_at) / Fold change /veh SRD5A1 (11742802_a_at) / RFU TPSAB1 /// TPSB2 (11721975_s_at) / Fold change /veh TPSAB1 /// TPSB2 (11721975_s_at) / RFU GSTM3 (11746129_a_at) / Fold change /veh GSTM3 (11746129_a_at) / RFU IL23R (11737362_x_at) / Fold change /veh IL23R (11737362_x_at) / RFU TMEM51 (11727254_a_at) / Fold change /veh TMEM51 (11727254_a_at) / RFU PIWIL2 (11732686_x_at) / Fold change /veh PIWIL2 (11732686_x_at) / RFU ORM1 (11744905_x_at) / Fold change /veh ORM1 (11744905_x_at) / RFU CCDC152 (11743942_at) / Fold change /veh CCDC152 (11743942_at) / RFU ECM1 (11717891_a_at) / Fold change /veh ECM1 (11717891_a_at) / RFU IL23R (11748794_a_at) / Fold change /veh IL23R (11748794_a_at) / RFU TNFAIP8L3 (11732012_x_at) / Fold change /veh TNFAIP8L3 (11732012_x_at) / RFU MBOAT4 (11741988_at) / Fold change /veh MBOAT4 (11741988_at) / RFU 11764193_at / Fold change /veh 11764193_at / RFU TMEM53 (11763286_at) / Fold change /veh TMEM53 (11763286_at) / RFU MAGEB2 (11727129_at) / Fold change /veh MAGEB2 (11727129_at) / RFU TMEM200A (11744735_a_at) / Fold change /veh TMEM200A (11744735_a_at) / RFU CCDC152 (11751479_a_at) / Fold change /veh CCDC152 (11751479_a_at) / RFU FAM211A (11726209_a_at) / Fold change /veh FAM211A (11726209_a_at) / RFU RGS16 (11746705_a_at) / Fold change /veh RGS16 (11746705_a_at) / RFU VCAN (11755009_s_at) / Fold change /veh VCAN (11755009_s_at) / RFU RHOB (11743442_s_at) / Fold change /veh RHOB (11743442_s_at) / RFU RGS16 (11720943_a_at) / Fold change /veh RGS16 (11720943_a_at) / RFU RGS16 (11720944_at) / Fold change /veh RGS16 (11720944_at) / RFU, VPS4B / Fold change vs veh, VPS4B / RFU, CREB1 / Fold change vs veh, CREB1 / RFU, DNAJC13 / Fold change vs veh, DNAJC13 / RFU, GNAQ / Fold change vs veh, GNAQ / RFU, CDK5R1 / Fold change vs veh, CDK5R1 / RFU, ZRANB3 / Fold change vs veh, ZRANB3 / RFU, CUL4A / Fold change vs veh, CUL4A / RFU, CCNY / Fold change vs veh, CCNY / RFU, UFL1 / Fold change vs veh, UFL1 / RFU, COG3 / Fold change vs veh, COG3 / RFU, DIAPH2 / Fold change vs veh, DIAPH2 / RFU, SKA2 / Fold change vs veh, SKA2 / RFU, AFF3 / Fold change vs veh, AFF3 / RFU, LMF1 / Fold change vs veh, LMF1 / RFU, IPO11 / Fold change vs veh, IPO11 / RFU, DFFB / Fold change vs veh, DFFB / RFU, FOXP1 / Fold change vs veh, FOXP1 / RFU, CARD8 / Fold change vs veh, CARD8 / RFU, STRN3 / Fold change vs veh, STRN3 / RFU, ADK / Fold change vs veh, ADK / RFU, RASSF2 / Fold change vs veh, RASSF2 / RFU, WIPF1 / Fold change vs veh, WIPF1 / RFU, LARP1B / Fold change vs veh, LARP1B / RFU, RASA1 / Fold change vs veh, RASA1 / RFU, RB1 / Fold change vs veh, RB1 / RFU, PPFIA1 / Fold change vs veh, PPFIA1 / RFU, MAT2A / Fold change vs veh, MAT2A / RFU, CCT5 / Fold change vs veh, CCT5 / RFU, WDR92 / Fold change vs veh, WDR92 / RFU, CUX1 / Fold change vs veh, CUX1 / RFU, TTC7A / Fold change vs veh, TTC7A / RFU, TMEM135 / Fold change vs veh, TMEM135 / RFU, DEPTOR / Fold change vs veh, DEPTOR / RFU, CPM / Fold change vs veh, CPM / RFU, DNAJB6 / Fold change vs veh, DNAJB6 / RFU, CACNA2D3 / Fold change vs veh, CACNA2D3 / RFU, DTX4 / Fold change vs veh, DTX4 / RFU, TFCP2 / Fold change vs veh, TFCP2 / RFU, GMCL1 /// GMCL1P1 / Fold change vs veh, GMCL1 /// GMCL1P1 / RFU, AEBP2 / Fold change vs veh, AEBP2 / RFU, SNHG1 /// SNORD22 /// SNORD25 /// SNORD26 /// SNORD27 /// SNORD28 /// SNORD29 /// SNORD31 / Fold change vs veh, SNHG1 /// SNORD22 /// SNORD25 /// SNORD26 /// SNORD27 /// SNORD28 /// SNORD29 /// SNORD31 / Fold change (Aza/veh), C12orf56 (ProbeSet 11735607_a_at) / Fold change (ACY-1035/veh), C12orf56 (ProbeSet 11735607_a_at) / Fold change (Aza/veh), FGFR1OP (ProbeSet 11751329_s_at) / Fold change (ACY-1035/veh), FGFR1OP (ProbeSet 11751329_s_at) / Fold change (Aza/veh), VPS36 (ProbeSet 11739960_a_at) / Fold change (ACY-1035/veh), VPS36 (ProbeSet 11739960_a_at) / RFU SYPL1 (11715823_x_at) / Fold change /veh SYPL1 (11715823_x_at) / RFU IGFBP7 (11715501_s_at) / Fold change /veh IGFBP7 (11715501_s_at) / RFU REEP3 (11722064_at) / Fold change /veh REEP3 (11722064_at) / RFU IGLL1 (11728026_x_at) / Fold change /veh IGLL1 (11728026_x_at): dose or concentration left out as unconfirmed
Conditions: ProbeSet 11743882_a_at; LIST D

Question: Which “RFU, STRN3” value does the source give for `Nc1ncn([C@@H]2O[C@H](CO)[C@@H](O)[C@H]2O)c(=O)n1` [azacitidine] here?
Answer: 92.89 RFU
